Laboratory results taken from US7192973B2, “Piperidine derivatives and their use as modulators of chemokine receptor activity (especially CCR5)” (AstraZeneca AB, priority 2001, dated 2007).

Biological target: recombinant human CCR5 receptor (Homo sapiens, UniProt P51681)
Assay: in vitro radioligand binding assay: inhibition of the binding of iodinated MIP-1α
Conditions: membranes from Chinese hamster ovary cells expressing CCR5; 0.1 nM iodinated MIP-1α; average if tested more than once
Procedure: The ability of compounds to inhibit the binding of MIP-1α was assessed by an in vitro radioligand binding assay. Membranes were prepared from Chinese hamster ovary cells which expressed the recombinant human CCR5 receptor. These membranes were incubated with 0.1 nM iodinated MIP-1α, scintillation proximity beads and various concentrations of the compounds of the invention in 96-well plates. The amount of iodinated MMP-1α bound to the receptor was determined by scintillation counting. Competition curves were obtained for compounds and the concentration of compound which displaced 50% of bound iodinated MIP-1α was calculated (IC50).

Sequence of recombinant human CCR5 receptor (P51681 whole entry): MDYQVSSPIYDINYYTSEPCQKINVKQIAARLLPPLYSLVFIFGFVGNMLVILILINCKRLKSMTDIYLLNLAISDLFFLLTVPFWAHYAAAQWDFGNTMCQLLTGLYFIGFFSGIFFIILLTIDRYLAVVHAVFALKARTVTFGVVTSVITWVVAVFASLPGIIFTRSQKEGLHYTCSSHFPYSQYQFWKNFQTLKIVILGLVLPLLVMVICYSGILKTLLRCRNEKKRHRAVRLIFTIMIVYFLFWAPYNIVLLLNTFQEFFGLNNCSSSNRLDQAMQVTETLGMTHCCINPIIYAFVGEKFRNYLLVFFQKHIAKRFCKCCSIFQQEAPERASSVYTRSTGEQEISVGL

SMILES: CCN(C(=O)Cc1ccc(S(C)(=O)=O)cc1)C1CCN(CCC(c2ccccc2)N2CCN(C)CC2)CC1 (centres unmarked) [6 of Table I]
- IC50: 363 nM

SMILES: CCN(C(=O)Cc1ccc(S(C)(=O)=O)cc1)C1CCN(CCC(c2ccccc2)N2CCN(S(=O)(=O)CC(F)(F)F)CC2)CC1 (centres unmarked) [15 of Table II]
- IC50: 5.62 nM
